We go through 1 compound from US5614527A, “Insecticidal tetrahydrofuran-compound” (Mitsui Toatsu Chemicals, Inc., priority 1994, dated 1997).

Usually mortality stands for the share of the test organisms that died. As a reminder, the LD50 is the dose at which mortality reaches 50%. A lower LD50 goes with greater toxicity.

Data set [1] has as its system Laodelphax striatellus Fallen--Smaller brown planthopper. The data set can be described thus: Effect on smaller brown planthopper (mortality, treated rice seedlings). The settings on record: female adults, 25° C., 48 hours. It is filed as in vivo. On the procedure:
Effect on Laodelphax striatellus Fallen--Smaller brown planthopper Each compound of the present invention was dissolved in acetone to prepare an acetone solution having a predetermined concentration, and 3 ml of the acetone solution was applied over a bundle of several rice seedlings (about third leaf stage). After drying in air, the treated seedlings were covered with a metal gauze cylinder, and ten female adults of smaller brown planthopper were introduced into the cylinder. Afterward, this cylinder was placed in a temperature controlled room at 25° C. and after 48 hours, mortality was checked.

For data set [2], the system named is resistant strain of Nepphotettix cincticeptus Unler--Resistant green rice leafhopper. The data set can be described thus: Effect on resistant green rice leafhopper (mortality, treated rice seedlings). It is filed as in vivo. The conditions noted are these: Nephotettix cincticeps, 48 h. How it is done:
Effect on resistant strain of Nepphotettix cincticeptus Unler--Resistant green rice leafhopper
Each compound of the present invention was dissolved in acetone to prepare an acetone solution having a predetermined concentration, and 3 ml of the acetone solution was applied over a bundle of several rice seedlings (about third leaf stage). After drying in air, the treated seedlings were covered with a metal gauze cylinder, and ten female adults of resistant green rice leafhopper were introduced into the cylinder. Afterward, this cylinder was placed in a temperature controlled room at 25° C., and after 48 hours, mortality was checked.

In data set [3] the test system is Spodoptera litura Fabricius--Common cutworm. The data set can be described thus: Effect on common cutworm (mortality, leaf immersion). It is filed as in vivo. The settings on record: Spodoptera litura, 72 h, second instar larvae, 25° C. How it is done: (§1) 20 parts of a compound of the present invention, 10 parts of Sorpol 355S (made by Toho Chemical Co., Ltd., a surface active agent), 70 parts of xylene were uniformly stirred and mixed to obtain an emulsion. Here, the parts mean parts by weight, which will apply to the following.
Effect on Spodoptera litura Fabricius--Common cutworm
The emulsion of each compound of the present invention prepared according to Formulation Example 1 was diluted with distilled water to a predetermined concentration, and a spreading agent New Gramin, made by Sankyo Co., Ltd.) was then added thereto so that its concentration might be 0.02%. Then, 3leaves of Ipomea batatas were fully immersed in the solution. After drying in air, the leaves were placed in a plastic cup having a diameter of 9 cm and a depth of 4 cm, and 10 second instar larvae of common cutworm were allowed to eat the leaves at 25° C. After 72 hours, mortality was checked.

Data set [4] deals with Myzus persicae Sulzer--Green peach aphid. The experiment in a line: Effect on green peach aphid (mortality, sprayed eggplant seedlings). The format is in vivo. The settings on record: Myzus persicae, 48 h. On the procedure:
as §1
Effect on Myzus persicae Sulzer--Green peach aphid
The emulsion of each compound of the present invention prepared according to Formulation Example 1 was diluted with distilled water to a predetermined concentration, and a spreading agent (New Gramn, made by Sankyo Co., Ltd.) was then added thereto so that its concentration might be 0.02%. Then, the thus prepared chemical solution was sprayed over eggplant seedlings of 2nd and 3rd plastochrons, on which green peach aphids had been parasitic, and the seedlings were the cultivated in a hothouse. After 48 hours, the number of the alive green peach aphid was counted to calculate mortality.

Data set [5] is described as follows: Acute toxicity to mice (oral). The conditions noted are these: mouse, in vivo; oral (stomach tube); male mice 6 weeks old; 14 days observation. On the procedure:
5-week-old male mice (Crj: CD-1) were purchased and then tamed for 1 week, and so the mice of 6 weeks old were tested. The mice were bred in a breeding chamber having a temperature of 23°±2° C., a humidity of 50±10%, a ventilation frequency of 15 times/hour and a lighting time of 12 hours/day. A solid feed (CE-2, made by Nippon Clea) was given, and as drinking water, tap water was freely given.
Each compound to be tested was Suspended in acetone:corn oil (1:9) by the use of a high-speed homogenizer, and then orally administered forcedly to the mice to be tested through a stomach tube. The amount of the solution to be administered was 0.1 ml with respect to 10 g of weight (10 ml/kg).
One administration group was constituted of 5 mice, and an observation period was 14 days from the administration.

Some results are limits rather than exact numbers.

`O=[N+]([O-])N=C1NCCCN1CC1CCOC1` (centres unmarked) [Compound No. 1, 1-[(tetrahydro-3-furanyl)methyl]-2-(nitroimino)hexahydropyrimidine]: the “Mortality (%)” value in data set [1] (200 ppm) and in data set [1] (1000 ppm) was 100% in each case. The compound also gave a mortality at 200 ppm in data set [2] of 100%. Further, the results for the mortality at 1000 ppm in data set [2] and in data set [3] were 100% and 70%, respectively. Further, in data set [4] (10 ppm), the mortality at 10 ppm amounted to 100%. In addition, in data set [4] (100 ppm), the mortality at 100 ppm worked out at 100%. Besides, the median lethal dose (LD50) at 336 h in data set [5] was over 300 mg/kg.
